Key:
human recombinant GSK3β = molecular target: T1, human recombinant GSK3β (Homo sapiens, UniProt P49841); experiment: GSK-3β assay (Z'-LYTE FRET enzymatic activity); format: biochemical; settings: 2 nM enzyme (N-terminal 6His-tagged, H350L mutation), 12.5 µM ATP, 2 µM Ser/Thr 9 peptide, 60 min at room temperature, 1% DMSO; read-out: GSK3β inhibition average EC50
T1 construct: 6His (N); purchased Millipore (Billerica, MA, USA)
Experimental: The enzymatic activity of GSK3β was determined with a commercial system based on the Z'-LYTE® technology, available from Invitrogen Life Technologies (Carlsbad, CA, USA), using human recombinant GSK3β (N-terminal 6His-tagged recombinant enzyme with an H350L mutation) from Millipore (Billerica, MA, USA) as the enzyme source. This technology utilizes the fluorescence resonance energy transfer ("FRET") process between fluorescein and coumarin. The assay principle is based on the differential sensitivity of phosphorylated and non-phosphorylated peptide to proteolytic cleavage, which precludes the energy transfer process between the two fluorophores attached to both sides of the cleavage site. […] The latter is a synthetic peptide, provided by Invitrogen under the commercial name "Ser/Thr 9 peptide", and it is based upon the sequence of a GSK3β substrate protein (glycogen synthase I) containing Ser-641. The peptide is labeled at both ends with fluorescein and coumarin. The assay is carried out in the presence of different concentrations of the tested compound, at a final 1% (v/v) DMSO concentration. After a 60 min incubation at room temperature, 5 µl of a commercial protease solution (sold by the same vendor in the assay kit) is added and a subsequent 1h incubation at room temperature is performed, before adding 5 µl of a suitable "stop solution", also provided by the vendor in the kit. After that, fluorescence intensity is recorded, monitoring emission at both 445 and 520 nm, upon excitation at 400 nm. An emission ratio is finally calculated, using the quotient among the emission at 445 nm divided by that at 520 nm.
The emission ratio of each tested sample is normalized to that of the control wells, so that for every compound concentration the percentage of inhibition is calculated by using the following equation: % Inhibition = 100⋅(E-S)/(E-B) [formula] wherein "S" is the emission ratio of the sample being considered, "E" is the average emission ratio of wells, including enzyme in the absence of inhibitors, and "B" is the average emission ratio of wells without enzyme. The inhibition values obtained at every compound concentration are finally used to calculate the EC50 of the tested compound, this parameter being the concentration of the compound which causes 50% of inhibition. For that purpose, the data were fitted to a classical 4-parameters isotherm equation using the nonlinear regression function of GraphPad™ Prism 5.0 (GraphPad Software Inc.). Such equation is described below: % Inhibition = L + (H-L)/(1 + (((EC50)/(C)))^n) [formula] wherein "L" is the lower asymptote of the theoretical sigmoidal curve, "H" is the higher asymptote, "C" is the concentration of compound and "n" is the Hill coefficient.

[1] = tested on: Ser-396 residue of Tau protein in human neuroblastoma SH-SY5Y cells; experiment: Cellular assay: phosphorylation at Ser-396 of Tau protein (ELISA); format: cell-based; settings: 18 h incubation at 37°C, 1% DMSO, normalized to untreated cells, read-out: pS*er396-Tau average EC50
Experimental: The effect of the compound in cells is determined by monitoring the level of phosphorylation at the Ser-396 residue of Tau protein in human neuroblastoma SH-SY5Y cells. Cells are grown in 96-well plates: 30,000 cells per well in a volume of 100 µl of 1:1 MEM:Ham's F12 medium including 10% (v/v) fetal bovine serum, 100 U/ml penicillin, 100 µg/ml streptomycin and 1% (v/v) 100-fold concentrated commercial stock of non-essential aminoacids (Gibco, Carlsbad, CA, USA), and incubated at 37°C during 24 h. Then, the corresponding amount of test compound is added to the wells to reach the desired concentration in 1% (v/v) DMSO. The system is incubated at 37°C during 18 h and afterwards cells are harvested, washed with phosphate buffer saline and incubated during 30 min on ice with 120 µl per well of "lysis buffer" (10 mM Tris-HCl pH 7.4, 100 mM NaCl, 1 mM EDTA, 2 mM sodium orthovanadate, 1% (v/v) Triton X-100, 10% (v/v) glycerol, 0.1% (w/v) sodium dodecyl sulfate, 0.5 % (w/v) sodium deoxycholate, 4% (v/v) 25-fold concentrated commercial stock of protease inhibitors (Roche, Basel, Switzerland) and 1 mM phenylmethylsulfonyl fluoride). 60 µl of this mixture is then placed in an empty 96-well plate and the levels of Ser-396 phosphorylation are determined using a commercial ELISA kit (Biosource, Carlsbad, CA, USA), following manufacturer's instructions. The levels of phosphorylation are expressed as percentage values, after normalizing them to those in untreated cells and those values are used to calculate EC50s, as described above for GSK-3.

T1 sequence (P49841 whole entry): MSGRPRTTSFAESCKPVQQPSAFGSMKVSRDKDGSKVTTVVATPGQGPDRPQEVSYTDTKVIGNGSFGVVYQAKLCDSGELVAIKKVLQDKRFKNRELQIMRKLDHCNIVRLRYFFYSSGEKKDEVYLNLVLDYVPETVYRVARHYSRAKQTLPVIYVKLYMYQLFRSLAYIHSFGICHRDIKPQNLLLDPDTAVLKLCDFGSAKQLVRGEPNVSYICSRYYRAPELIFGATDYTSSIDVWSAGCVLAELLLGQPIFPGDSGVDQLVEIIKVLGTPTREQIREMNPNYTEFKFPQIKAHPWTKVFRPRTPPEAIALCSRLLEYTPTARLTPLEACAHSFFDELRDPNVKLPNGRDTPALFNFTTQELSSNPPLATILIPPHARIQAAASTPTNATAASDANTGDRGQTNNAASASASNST

SMILES | EC50 (human recombinant GSK3β) [nM] | EC50 [1] [nM]
COC(=O)C(CSSC(=O)N(Cc1ccccc1)C(=O)Nc1cccc2ccccc12)NC(C)=O (centres unmarked) [Compound 11, 2-Acetylamino-6-(1-benzyl-3-naphthalen-1-yl-ureido)-4-5-dithia-6-oxo-hexanoic acid methyl ester] | 104 | –
O=C(Nc1cccc2ccccc12)N(Cc1ccccc1)C(=O)SS [Compound 15, Benzyl-(N-Naphthalen-1-yl-formamide)-carbamoyl sodium dithioperoxol] | 1660 | –
CCSSC(=O)N(C(=O)N(C)C)c1cccc(C(F)(F)F)c1 [Compound 13] | 339 | –
O=C(Nc1cccc2ccccc12)N(Cc1ccccc1)C(=O)SSCCc1ccccc1 [Compound 4, 1-Benzyl-1-(5-phenyl-pentan-2,3-dithia-1-oyl)-3-naphthalen-1-yl-urea] | 58 | 6610
CCN(CC)C(=O)N(C(=O)SSCc1ccccc1)c1cc(F)cc(F)c1 [Compound 12] | 8320 | –
O=C(Nc1cccc2ccccc12)N(Cc1ccccc1)C(=O)SSC1CCCC1 [Compound 5, 1-Benzyl-1-(3-cyclopentyl-propion-2,3-dithia-1-oyl)-3-naphthalen-1-yl-urea] | 125 | –
CCCCSSC(=O)N(Cc1ccccc1)C(=O)Nc1cccc2ccccc12 [Compound 2, 1-Benzyl-1-heptan-2,3-dithia-1-oyl-3-naphthalen-1-yl-urea] | 66 | –
CCOC(=O)CNC(=O)N(CC(=O)OCC)C(=O)SSCCc1ccccc1 [Compound 8, [3-Ethoxycarbonylmethyl-3-(pentan-2,3-dithia-5-phenyl-1-yl)-ureido]-acetic acid ethyl ester] | 97 | –
CC(C)C(C)SSC(=O)N(Cc1ccccc1)C(=O)Nc1ccc(Oc2ccccc2)cc1 (centres unmarked) [Compound 9, 1-Benzyl-1-(hexan-2,5-dithia-4,5-dimethyl-1-yl)-3-(4-phenoxy-phenyl)-urea] | 35 | –
O=C(Nc1cccc2ccccc12)N(Cc1ccccc1)C(=O)SSCc1ccccc1 [Compound 6, 1-Benzyl-3-naphthalen-1-yl-1-(4-phenyl-butyr-2,3-dithia-1-oyl)-urea] | 229 | 6760
O=C(Nc1ccc2c(c1)OCO2)N(Cc1ccccc1)C(=O)SSC1CCCC1 [Compound 7, 3-Benzo[1,3]dioxol-5-yl-1-benzyl-1-(1-propion-2,3-dithia-3-cyclopentyl-1-yl)-urea] | 82 | –
C=CCSSC(=O)N(Cc1ccccc1)C(=O)Nc1cccc2ccccc12 [Compound 1, 1-Benzyl-1-hex-2,3-dithia-5-enoyl-3-naphthalen-1-yl-urea] | 708 | –
CC(C)C(C)SSC(=O)N(Cc1ccccc1)C(=O)Nc1cccc2ccccc12 (centres unmarked) [Compound 3, 1-Benzyl-1-(4,5 dimethy-hexan-2,3-dithia-1-oyl)-3-naphthalen-1-yl-urea] | 161 | –
CCCCCSSC(=O)N(Cc1ccccc1)C(=O)NCc1ccccc1 [Compound 10, 1,3-Dibenzyl-1-(octan-2,3-dithia-1-oyl)-urea] | 295 | 7080
